Measured values from US8871900B2, “Fibroblast growth factor (FGF) analogs and uses thereof” (University of Rochester, priority 2008, dated 2014).

Key:
[1] = Plasma endotoxin after sub-TBI (tachypleus amebocyte lysate kit); format: in vivo, mouse (Balb/c, C57BL/6); details: Balb/c, 10.5 Gy
Experimental: Some studies have employed bacterial culture of liver samples. Bacterial translocation occurs due to mucosal barrier changes (1) at the level of the basement membrane and (2) bowel mucous volume and composition. The most reliable and most clinically applicable method to measure bacterial translocation is the endotoxin assay. The level of plasma endotoxin 3.5 days post-IR was measured with a commercialized kit that utilized tachypleus amebocyte lysate to sensitively quantitate endotoxin at extremely low levels (<0.01 EU/ml); and 4) body weight (BW): poor nutrition and water absorption will result in reduced body weight. The rate and severity of weight loss, as well as the pace of body weight recovery, will be measured.
(§1) 2) A standard scoring scale was used to evaluate stool formation (diarrhea). The bowel was extracted from the abdomen and visually inspected. Formed stool was easily distinguished from semi-solid and liquid stool as it passed from the ascending to descending colon. FIGS. 7B and 7C show the irradiated bowel in controls compared with FGF-P-treated Balb/c mice. The FGF-P was given at a dose of 2 mg/kg im for three daily doses beginning 15 min after irradiation. Animals were sacrificed 3.5 days after 10.5 Gy sub-TBI.

[2] = Stool hemoccult score after sub-TBI; format: in vivo, mouse (Balb/c, C57BL/6); details: Balb/c, 12.5 Gy sub-TBI; FGF-P 2 mg/kg im 15 min post irradiation; Amifostine iv 30 min pre-irradiation; P<0.05
From the text: There are commonly employed assays known to be relevant to both mouse and man for determining relative endpoints. These include: 1) stool blood: mucosal barrier breakdown is associated with bleeding of the small bowel; therefore, a hemoccult analysis with a commercial kit (BD Cat #64151) was used in the preliminary data at 3 days after sub-TBI. The time course and frequency of GI bleeding; 2) stool formation: the GI functions of digestion, absorption of nutrition and water, and the regular movement of intestinal muscle are required for formation of normal stool can be measured. All these functions can be upset by radiation. For example, loss of villi leads to decreased fluid absorption and diarrhea. The colon was excised and examined visually for the presence of formed stool at 3.5 days post-IR; 3) endotoximia: bacterial translocation can occur at early times following gastrointestinal radiation exposure.
as §1, with “Animals were sacrificed 3.5 days after 10.5 Gy sub-TBI.” left out

[3] = test system: proliferating crypts of small intestine; test: Crypt assay of small intestine after sub-TBI (H&E, BrdU, villi length); format: in vivo, mouse (Balb/c, C57BL/6); details: Balb/c
From the text: Enhanced proliferation of crypts in small intestine: The epithelium of the small intestine has a rapid turnover, renewing every 3-7 days. The stem cells are located ⅓ of the way up the […] and active mitosis can be seen above growing into the villus and below, forming the crypt. There are no definitive markers available to identify the stem cells, and thus the number of these cells in each crypt are unknown. When the bowel is irradiated, the number of crypts remains constant up to a dose just below the LD50/7. Above that dose, there is a log-linear decrease in the number of crypts, usually measured at 3.5 days. […] Data from the crypt assay can be augmented with injection of BrdU. BrdU can be given to animals at one or more times after irradiation to determine the rate of proliferation and rate of elongation of villi.
FGF-P was then repeated daily for 2 days. At 80 hr post-IR, BrdU (120 mg/kg) was injected ip and 4 hours later (about 3.5 days post-IR), the mice were sacrificed and the duodenal, jejunal and ileal segments (3-4 pieces/segment) were harvested, fixed in formalin, processed in paraffin blocks, cut in transverse sections of the full segment circumference (5 μm thick) and stained with H&E or anti-BrdU following the standard immunochemistry procedure (23). The proliferating crypts were defined as containing 10 or more adjacent chromophilic non-Paneth cells and a lumen. The circumference of a transverse cross-section of the intestine was used as a unit. The number of proliferating crypts was counted in each circumference. At least 10 circumferences were scored per mouse and 4-5 mice were used to generate each data point.
The villi length of duodenum, jejunum and ileum was measured using a customized Imaging Pro program.

[4] = test system: MCP-1, IL-6, TNFα; test: Plasma inflammatory molecules after sub-TBI (Luminex bead array); format: in vivo, mouse (Balb/c); details: Balb/c, 12 Gy sub-TBI
Experimental: Bead array technology has been developed to facilitate the study of cytokine expression profiles in normal tissues following radiation. Bead arrays have several advantages over ELISA. First, mice have a limited blood volume (0.3-0.4 ml of plasma/mouse). Each ELISA typically requires approximately 0.1 ml and thus only a limited number of assays are possible. Secondly, the time required to perform ELISAs one by one stresses the system in a large experiment and would be difficult to perform in the field in case of a radiological event. The Luminex bead array technology was used. The paired monoclonal antibodies, the highly-purified protein standards, and the more than 50 different cytokinespecific beads were purchased. In these studies, Balb/c mice received 12 Gy sub-TBI and then im injection of vehicle alone (0.2 ml of saline), FGF-P (2 mg/kg at 10 min post-IR and daily for two days), or Amifostine (200 mg/kg, either 30 min before IR, or 10 min after IR). The samples were collected 3.5 days after IR.
All three of these cytokines are associated with increased severity and progression of radiation-related inflammatory toxicity in mouse and man.

[5] = test system: irradiated mice (AGS); details: cited from earlier work; for dose of peak response: AGS, LD50/7 or crypt assay
[6] = test system: proliferating crypts of small intestine; details: comparison stated for native FGFs; cited from earlier work
[7] = test system: Cdc42, Rac1, Mapk10, Cfl; test: Gene expression in irradiated BM cells (Luminex multiplex array); format: cell-based, mouse; details: treatment 20 min after 5 Gy IR, 6 hours, P<0.05
[8] = test system: bovine aortic endothelial cells; details: in vitro; cited from earlier work
[9] = test system: FGF receptor; details: cited from earlier work
[10] = in animals; cited from earlier work

Row | Molecule | dose of peak response [5] | crypt survival [6] | cell proliferation and radiation-induced apoptosis [8] | binding to FGF receptor [9] | downstream signaling [9] | radio-protective effects [10] | other results
1 | NCCCNCCSP(=O)(O)O [Amifostine] |  |  |  |  |  |  | plasma endotoxin level ([1]; Amifostine given after irradiation): 2.87 EU/ml; plasma endotoxin level (mean) ([1]; Amifostine iv 30 min before IR): 0.93 EU/ml; stool hemoccult score [2]: reduced stool hemoccult score; crypt numbers in the ileum ([3]; 12 Gy, Amifostine given after irradiation): no effect when given after irradiation; crypt numbers in the ileum ([3]; 3.5 days after 12 Gy, Amifostine 200 mg/kg iv 30 min before sub-TBI): level of protection matched that obtained for Amifostine; plasma MCP-1, IL-6 and TNFα ([4]; Amifostine 200 mg/kg 10 min after IR): no benefit; plasma MCP-1, IL-6 and TNFα ([4]; Amifostine 200 mg/kg 30 min before IR): beneficial response
2 | FGF-1: acidic fibroblast growth factor, human protein | approximately 6 μg/mouse | approximately doubles crypt survival |  |  |  |  | 
3 | FGF-2: basic fibroblast growth factor, native full length human protein | approximately 6 μg/mouse | approximately doubles crypt survival |  |  |  |  | dose with benefit ([5]; human FGF-2 in mice): 1 μg/mouse; expression of Cdc42 [7]: reversed the IR-suppressed expression; expression of Cfl (cofilin 1) [7]: suppressed towards normal; expression of Mapk10 [7]: suppressed towards normal; expression of Rac1 [7]: reversed the IR-suppressed expression
4 | RFHSWDCIKTWASDTFVLVCYDDGSEA [F2A3, synthetic peptide that mimics FGF-2] |  |  | trigger cell proliferation and block radiation-induced apoptosis similar to bFGF | equivalent to native bFGF | as effectively as bFGF | radio-protective effects similar to bFGF | 
5 | YRSRKYSSWYVALKR [F2A4, synthetic peptide that mimics FGF-2] |  |  | trigger cell proliferation and block radiation-induced apoptosis similar to bFGF | equivalent to native bFGF | as effectively as bFGF | radio-protective effects similar to bFGF | 
